These results are taken from US10233498B2, “Therapeutic agent for emphysema and COPD” (TRUSTEES OF BOSTON UNIVERSITY, priority 2011, dated 2019).

One test deals with β1-integrin. Description: Immunoblotting for β1-integrin in HFL-1 cells. The note with it: HFL-1, 48 hrs, FIG. 8A. Format: cell-based, human. The method, then:
(§1) Normal human diploid lung fibroblasts (HFL-1) were obtained from the American Type Culture Collection (Manassas, Va.) and used between 3-5 consequent passages after thawing of frozen cells. HFL-1 cells were placed in 6-well culture plates (BD Biosciences, Mississauga, ON) at a density of 1×10^5 cells per well in complete cell culture medium (CCM, DMEM supplemented with 10% FBS, 2 mM L-glutamine and 1% of antibiotic solution; Invitrogen, Burlington, ON). Cells were cultured at 37° C. and 5% CO2 in CCM before they reached 80% confluence. Cells were quiesced in CCM with 1% FBS overnight. […] Cells exposed to the CCM with added DMSO served as a vehicle control. Experiments were repeated 3 times using HFL-1 cells during 3 consequent cell culture passages. Total RNA was isolated from HFL-1 monolayers using RNeasy Plus Mini-Kit (Qiagen, Valencia, Calif.) as per manufacturer's instructions. Quantity and quality of the isolated RNA was determined using Agilent 2100 Bioanalyzer (Agilent Technologies, Mississauga, ON). Isolated RNA was processed and hybridized onto the Human Gene 1.0 ST array (Affymetrix Inc., Santa Clara, Calif.) according to the manufacturer's protocol. Transcript-level gene expression estimates were generated using RMA with the Entrez gene CDF version v11. […] Gene expression profiles were ranked for each treatment by t-statistic.
Production of β1-integrin by HFL-1 cells was assessed by immunoblotting as previously described (Pechkovsky, D. V. et al. The Journal of biological chemistry 2008 283:12898-908). Briefly, total cell protein was extracted from cultured HFL-1 using Cell Protein Extraction Buffer (Biosource, Camarillo, Calif.), quantified by DC Protein Assay (Bio-Rad, Hercules, Calif.), resolved by SDS-PAGE, and transferred to nitrocellulose membranes. Membranes were probed with mouse anti-human β1-integrin antibody (clone 419127, R&D Systems, Minneapolis, Minn.) and anti-β-tubulin antibody (Millipore, Billerica, Mass.) as a loading control. […] Density of the bands was quantified using Odyssey software 2.1 (LI-COR Biosciences). […]
Background: A western blot detects proteins with antibodies after separation by electrophoresis.

In test [1] the test system is human lung fibroblasts (HFL-1). In words: Gene expression profiling (microarray, GSEA) of treated HFL-1 fibroblast cultures. The format is cell-based. How it is done:
GSEA was used to explore connections to other datasets. Genes in this dataset were ranked by the t-statistic of the Lm term in the linear model represented by equation (2) shown above. […] For those datasets where raw data was available, the Entrez gene chip definition file (CDF) was used to obtain RMA normalized expression values. Genes from these datasets were ranked by t-statistic. For dichotomous variables, the t-statistic was calculated from a comparison of expression levels observed in the two groups (e.g. cases and controls). For continuous variables, the t-statistic was from a linear model of expression as a function of the continuous variable (e.g. FEV1). Datasets that measured the effect of TGFβ ligands on gene expression in various cell types included Chambers et al., (The American journal of pathology 2003162:533-46) Verrecchia et al., (The Journal of biological chemistry 2001 276:17058-62), GSE749712, GSE545010, GSE665314, GSE1171013, and GSE172415. Lists of genes that change with TGFβ exposure were taken from the publication associated with the microarray data. If lists of at least 25 genes could not be obtained from the literature, the raw data was used from GEO and normalized as described above. The 200 genes with the highest fold change and the 200 genes with the lowest fold change were used as gene sets and compared to a list of all genes from this dataset ranked by their correlation to Lm.
as §1

“Also recorded” adds a separate entry of the source.

In the case of Glycine-Histidine-Lysine [GHK], the “β1-integrin (ITGB1) protein levels vs vehicle (DMSO) treated controls” value with β1-integrin (GHK 0.1 or 10 nM, p<0.01) is reported as “significantly induced; also recorded: increase”. Moreover, the “GSEA: genes that increase after treatment among genes whose expression decreases with increasing emphysema” value in test [1] (GHK 0.1 nM or 10 nM (either concentration), HFL-1, FIG. 7A) is reported as “enriched”. Further, the “GSEA: 200 genes most induced by GHK at 1 μM in CMap cancer cell lines among genes that increase with treatment in HFL-1” value in test [1] (GHK 0.1 nM, 48 hrs, HFL-1, FIG. 7B) is given as “enriched”. In addition, the ITGB1 expression profile result in test [1] (GHK 0.1 nM, HFL-1, p=0.004) was “significantly upregulated”. Moreover, the “GSEA: genes whose expression is decreased with increasing emphysema severity among genes induced by treatment” value in test [1] (GHK 10 nM, 48 hrs, HFL-1, FIG. 7C) is reported as “enriched”. Besides, the “GSEA: genes whose expression is altered by GHK treatment among genes that change with TGFβ1 treatment” value in test [1] (GHK at either concentration (0.1 nM, 10 nM), HFL-1, FIGS. 7B-7D) was “enriched”.
Regarding “TGFβ1: recombinant human TGFβ1 (10 ng/ml, PeproTech)”, the “β1-integrin (ITGB1) protein levels vs vehicle (DMSO) treated controls” value with β1-integrin (TGFβ 10 ng/mL, p<0.05) is recorded as “significantly induced”; with β1-integrin (TGFβ 10 ng/mL, p<0.05, listed as TGFβ), “increase”. Further, the “GSEA: genes most induced by treatment among genes that decrease in expression with increasing regional emphysema severity” value in test [1] (TGFβ1 10 ng/ml, human lung fibroblasts, FDR<0.05, FIG. 7A) is “enriched”.
